In US12343326B2, “Psychoactive medicines and their use for treating psychiatric and neurological conditions and disorders” (Transcend Therapeutics, Inc., priority 2021, dated 2025):

How the values were obtained:
Experiment in all cases: β-arrestin based GPCR screen (PathHunter / GPCRmax), antagonist mode
[1] = target: 168 GPCRs (Homo sapiens, UniProt P18825); conditions: ADRA2C, Antagonist
[2] = target: 168 GPCRs (Homo sapiens, UniProt P32246); conditions: CCR1, Antagonist
[3] = target: 168 GPCRs (Homo sapiens, UniProt P46091)
Sequence of 168 GPCRs (Homo sapiens, UniProt P46091) (P46091 whole entry): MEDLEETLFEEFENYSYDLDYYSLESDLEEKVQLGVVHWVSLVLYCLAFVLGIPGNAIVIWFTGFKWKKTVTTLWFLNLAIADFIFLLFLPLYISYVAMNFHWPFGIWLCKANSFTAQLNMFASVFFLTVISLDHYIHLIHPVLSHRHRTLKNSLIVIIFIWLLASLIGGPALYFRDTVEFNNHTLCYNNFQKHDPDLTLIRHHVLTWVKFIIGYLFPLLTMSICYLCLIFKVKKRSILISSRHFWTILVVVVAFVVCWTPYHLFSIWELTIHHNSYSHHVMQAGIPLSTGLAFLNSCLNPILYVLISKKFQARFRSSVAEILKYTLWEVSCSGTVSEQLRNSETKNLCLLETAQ

[4] = target: 168 GPCRs (Homo sapiens, UniProt P49146); conditions: NPY2R
[5] = target: 168 GPCRs (Homo sapiens, UniProt P28336); conditions: NMBR
[6] = target: 168 GPCRs (Homo sapiens, UniProt O43603)
Sequence of 168 GPCRs (Homo sapiens, UniProt O43603) (O43603 whole entry): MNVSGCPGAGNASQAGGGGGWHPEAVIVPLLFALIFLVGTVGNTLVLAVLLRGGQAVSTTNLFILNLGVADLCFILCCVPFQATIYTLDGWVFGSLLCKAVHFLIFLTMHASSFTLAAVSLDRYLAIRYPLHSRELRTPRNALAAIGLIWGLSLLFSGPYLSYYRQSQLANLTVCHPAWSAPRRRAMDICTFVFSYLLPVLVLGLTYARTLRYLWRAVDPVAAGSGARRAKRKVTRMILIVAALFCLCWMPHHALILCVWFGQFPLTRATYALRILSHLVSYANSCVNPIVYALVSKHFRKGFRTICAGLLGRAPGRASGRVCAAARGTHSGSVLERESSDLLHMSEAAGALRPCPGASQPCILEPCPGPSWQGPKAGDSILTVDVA

[7] = target: 168 GPCRs (Homo sapiens, UniProt Q9H244)
Sequence of 168 GPCRs (Homo sapiens, UniProt Q9H244) (Q9H244 whole entry): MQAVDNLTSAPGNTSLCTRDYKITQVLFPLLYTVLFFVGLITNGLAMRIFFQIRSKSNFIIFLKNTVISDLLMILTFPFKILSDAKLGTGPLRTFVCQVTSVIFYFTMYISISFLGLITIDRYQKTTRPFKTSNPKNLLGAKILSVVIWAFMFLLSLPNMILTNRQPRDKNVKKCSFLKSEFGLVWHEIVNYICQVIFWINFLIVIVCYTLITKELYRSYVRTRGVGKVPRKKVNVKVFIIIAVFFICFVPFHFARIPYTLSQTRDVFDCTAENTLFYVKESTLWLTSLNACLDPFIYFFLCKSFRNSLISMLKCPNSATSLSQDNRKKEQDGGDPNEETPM

[8] = target: 168 GPCRs (Homo sapiens, UniProt P51677); conditions: CCR3, Antagonist
Sequence of 168 GPCRs (Homo sapiens, UniProt P51677) (P51677 whole entry): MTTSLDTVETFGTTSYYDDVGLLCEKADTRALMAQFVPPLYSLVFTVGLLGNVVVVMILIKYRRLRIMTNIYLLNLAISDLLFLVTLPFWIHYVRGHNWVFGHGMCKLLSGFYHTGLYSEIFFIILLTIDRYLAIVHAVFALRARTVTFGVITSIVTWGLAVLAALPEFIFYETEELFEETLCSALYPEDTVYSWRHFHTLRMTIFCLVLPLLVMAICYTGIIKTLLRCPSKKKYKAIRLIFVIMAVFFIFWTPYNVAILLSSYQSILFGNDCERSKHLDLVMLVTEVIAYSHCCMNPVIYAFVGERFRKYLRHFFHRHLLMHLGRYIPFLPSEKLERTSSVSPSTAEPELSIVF

[9] = target: 168 GPCRs (Homo sapiens, UniProt P34972)
Sequence of 168 GPCRs (Homo sapiens, UniProt P34972) (P34972 whole entry): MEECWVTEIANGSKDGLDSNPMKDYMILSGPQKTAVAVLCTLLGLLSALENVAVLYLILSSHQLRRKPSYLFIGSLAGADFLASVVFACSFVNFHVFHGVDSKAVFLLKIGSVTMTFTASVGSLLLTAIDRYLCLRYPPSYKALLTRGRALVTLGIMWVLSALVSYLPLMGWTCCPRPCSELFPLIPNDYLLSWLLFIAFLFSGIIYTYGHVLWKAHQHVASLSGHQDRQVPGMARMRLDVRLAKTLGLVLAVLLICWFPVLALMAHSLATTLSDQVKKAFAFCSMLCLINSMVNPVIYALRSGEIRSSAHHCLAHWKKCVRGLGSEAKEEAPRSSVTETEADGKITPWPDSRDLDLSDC

[10] = target: 168 GPCRs (Homo sapiens, UniProt Q8NFJ6)
Sequence of 168 GPCRs (Homo sapiens, UniProt Q8NFJ6) (Q8NFJ6 whole entry): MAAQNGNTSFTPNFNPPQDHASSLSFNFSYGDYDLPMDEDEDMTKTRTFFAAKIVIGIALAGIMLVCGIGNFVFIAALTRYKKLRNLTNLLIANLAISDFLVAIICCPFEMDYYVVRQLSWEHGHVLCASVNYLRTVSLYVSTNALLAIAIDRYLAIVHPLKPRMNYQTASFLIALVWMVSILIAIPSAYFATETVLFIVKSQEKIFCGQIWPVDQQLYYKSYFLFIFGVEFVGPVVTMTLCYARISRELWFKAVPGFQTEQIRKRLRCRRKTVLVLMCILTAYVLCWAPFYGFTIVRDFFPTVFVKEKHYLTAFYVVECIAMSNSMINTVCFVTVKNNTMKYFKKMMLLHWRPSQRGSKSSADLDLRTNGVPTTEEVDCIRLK

[11] = target: 168 GPCRs (Homo sapiens, UniProt P21452)
[12] = target: 168 GPCRs (Homo sapiens, UniProt P35367)
Sequence of 168 GPCRs (Homo sapiens, UniProt P35367) (P35367 whole entry): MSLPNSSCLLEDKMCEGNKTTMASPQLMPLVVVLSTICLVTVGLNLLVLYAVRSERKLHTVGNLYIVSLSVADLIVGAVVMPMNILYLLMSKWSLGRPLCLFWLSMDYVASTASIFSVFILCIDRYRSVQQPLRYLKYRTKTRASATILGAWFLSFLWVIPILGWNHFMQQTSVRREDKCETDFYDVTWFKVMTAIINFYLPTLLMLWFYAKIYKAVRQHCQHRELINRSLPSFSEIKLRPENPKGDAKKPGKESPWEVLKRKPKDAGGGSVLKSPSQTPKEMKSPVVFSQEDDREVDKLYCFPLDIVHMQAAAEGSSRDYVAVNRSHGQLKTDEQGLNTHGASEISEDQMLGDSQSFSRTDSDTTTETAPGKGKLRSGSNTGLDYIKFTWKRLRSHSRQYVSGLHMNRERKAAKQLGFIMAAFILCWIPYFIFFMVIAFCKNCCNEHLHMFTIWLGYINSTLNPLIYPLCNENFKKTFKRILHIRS

[13] = target: 168 GPCRs (Homo sapiens, UniProt Q9NSD7)
[14] = target: 168 GPCRs (Homo sapiens, UniProt P51679); conditions: CCR4, Antagonist
[15] = target: 168 GPCRs (Homo sapiens, UniProt Q9HB89); conditions: NMU1R
Sequence of 168 GPCRs (Homo sapiens, UniProt Q9HB89) (Q9HB89 whole entry): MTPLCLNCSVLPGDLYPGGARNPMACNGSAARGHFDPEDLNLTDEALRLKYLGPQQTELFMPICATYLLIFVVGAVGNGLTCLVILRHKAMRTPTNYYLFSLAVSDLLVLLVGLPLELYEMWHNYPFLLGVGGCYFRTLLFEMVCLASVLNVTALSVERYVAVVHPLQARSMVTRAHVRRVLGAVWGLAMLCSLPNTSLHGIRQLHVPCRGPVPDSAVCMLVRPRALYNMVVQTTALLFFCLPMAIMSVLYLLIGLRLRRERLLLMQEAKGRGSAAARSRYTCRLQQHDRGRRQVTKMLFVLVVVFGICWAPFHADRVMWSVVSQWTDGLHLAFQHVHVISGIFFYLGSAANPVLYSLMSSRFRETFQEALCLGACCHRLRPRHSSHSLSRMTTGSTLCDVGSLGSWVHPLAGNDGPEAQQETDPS

[16] = target: T1, 168 GPCRs (Homo sapiens, UniProt P24530); conditions: EDNRB
T1 sequence (P24530 27-442): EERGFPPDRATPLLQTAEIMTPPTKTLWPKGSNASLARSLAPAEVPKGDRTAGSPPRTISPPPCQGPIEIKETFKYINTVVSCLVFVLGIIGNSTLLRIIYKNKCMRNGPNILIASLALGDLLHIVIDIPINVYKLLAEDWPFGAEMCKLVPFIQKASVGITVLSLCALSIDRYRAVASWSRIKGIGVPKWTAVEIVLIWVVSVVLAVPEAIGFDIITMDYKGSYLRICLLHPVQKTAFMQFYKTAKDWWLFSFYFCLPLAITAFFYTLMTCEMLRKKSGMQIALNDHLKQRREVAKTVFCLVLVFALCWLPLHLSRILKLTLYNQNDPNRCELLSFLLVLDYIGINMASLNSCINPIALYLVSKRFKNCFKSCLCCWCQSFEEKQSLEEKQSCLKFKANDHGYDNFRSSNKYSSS

[17] = target: 168 GPCRs (Homo sapiens, UniProt P28222); conditions: HTR1B
Sequence of 168 GPCRs (Homo sapiens, UniProt P28222) (P28222 whole entry): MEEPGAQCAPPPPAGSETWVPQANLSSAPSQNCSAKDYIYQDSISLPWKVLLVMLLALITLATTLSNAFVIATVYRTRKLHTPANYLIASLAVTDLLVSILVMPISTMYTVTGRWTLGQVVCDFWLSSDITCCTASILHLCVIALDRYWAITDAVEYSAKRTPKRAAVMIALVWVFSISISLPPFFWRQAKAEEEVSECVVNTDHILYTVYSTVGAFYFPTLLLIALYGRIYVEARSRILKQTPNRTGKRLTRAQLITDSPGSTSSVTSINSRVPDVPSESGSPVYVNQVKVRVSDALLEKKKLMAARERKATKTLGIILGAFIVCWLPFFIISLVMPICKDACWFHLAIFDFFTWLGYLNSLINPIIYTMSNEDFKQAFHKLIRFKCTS

[18] = target: 168 GPCRs (Homo sapiens, UniProt Q96LB1)
Sequence of 168 GPCRs (Homo sapiens, UniProt Q96LB1) (Q96LB1 whole entry): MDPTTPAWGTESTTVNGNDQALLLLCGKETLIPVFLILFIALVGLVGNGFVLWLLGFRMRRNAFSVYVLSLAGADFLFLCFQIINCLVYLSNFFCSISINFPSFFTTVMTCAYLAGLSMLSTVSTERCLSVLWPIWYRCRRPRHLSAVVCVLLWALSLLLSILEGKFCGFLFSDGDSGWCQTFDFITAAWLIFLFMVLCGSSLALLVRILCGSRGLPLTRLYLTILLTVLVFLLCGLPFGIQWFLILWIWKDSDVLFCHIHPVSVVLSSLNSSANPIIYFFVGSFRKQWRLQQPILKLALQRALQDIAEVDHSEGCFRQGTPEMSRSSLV

[19] = target: 168 GPCRs (Homo sapiens, UniProt P30411); conditions: BDKRB2, Antagonist
[20] = target: 168 GPCRs (Homo sapiens, UniProt P35414); conditions: AGTRL1, Antagonist

Sequence of 168 GPCRs (Homo sapiens, UniProt P18825) (P18825 whole entry): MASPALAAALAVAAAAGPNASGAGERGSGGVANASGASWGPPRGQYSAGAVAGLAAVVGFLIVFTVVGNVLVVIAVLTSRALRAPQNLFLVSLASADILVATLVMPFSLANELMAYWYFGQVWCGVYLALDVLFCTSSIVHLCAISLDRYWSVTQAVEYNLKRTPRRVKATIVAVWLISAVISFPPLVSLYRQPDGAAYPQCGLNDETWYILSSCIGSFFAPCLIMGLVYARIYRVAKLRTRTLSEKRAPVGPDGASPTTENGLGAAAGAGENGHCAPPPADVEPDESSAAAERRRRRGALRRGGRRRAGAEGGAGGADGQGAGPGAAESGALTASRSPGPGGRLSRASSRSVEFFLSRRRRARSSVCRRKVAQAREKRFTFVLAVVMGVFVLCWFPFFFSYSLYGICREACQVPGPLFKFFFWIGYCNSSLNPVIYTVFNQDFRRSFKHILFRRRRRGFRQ
Sequence of 168 GPCRs (Homo sapiens, UniProt P32246) (P32246 whole entry): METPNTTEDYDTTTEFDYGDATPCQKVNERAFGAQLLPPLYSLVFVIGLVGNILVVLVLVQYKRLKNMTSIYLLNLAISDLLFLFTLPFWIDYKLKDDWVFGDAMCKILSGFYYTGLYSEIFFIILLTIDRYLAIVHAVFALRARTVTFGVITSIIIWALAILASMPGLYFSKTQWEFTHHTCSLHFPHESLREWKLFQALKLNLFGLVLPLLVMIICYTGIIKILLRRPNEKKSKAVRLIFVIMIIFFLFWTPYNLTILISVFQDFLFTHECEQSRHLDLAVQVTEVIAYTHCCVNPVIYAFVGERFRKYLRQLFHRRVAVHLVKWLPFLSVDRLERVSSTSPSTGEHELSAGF

`CNC(C)C(=O)c1ccc2c(c1)OCO2` (stereo not shown) [methylone, 3,4-methylenedioxy-N-methylcathinone] was tested, and the activity at 1 µM ([1]; 1 uM) was -4.3%, the activity at 10 µM ([1]; 10 uM) was 17.6% and the activity at 1 µM ([2]; 1 uM) was -8.1%. It also gave an activity at 10 µM ([2]; 10 uM) of -16.6%, an activity at 10 µM ([3]; GPR1, Antagonist mode, 10 uM) of 7.4% and an activity at 1 µM ([3]; GPR1, Antagonist, 1 uM) of 4.4%. It also gave an activity at 10 µM ([4]; Antagonist mode, 10 uM) of 2%, an activity at 1 µM ([4]; Antagonist, 1 uM) of 2.3% and an activity at 10 µM ([5]; Antagonist mode, 10 uM) of 13.2%. For the same compound, the activity at 1 µM ([5]; Antagonist, 1 uM) was 10.3%, the activity at 10 µM ([6]; GALR2, Antagonist mode, 10 uM) was 1.5% and the activity at 1 µM ([6]; GALR2, Antagonist, 1 uM) was 7%. For the same compound, the activity at 10 µM ([7]; P2RY12, Antagonist mode, 10 uM) was -10.4%, the activity at 1 µM ([7]; P2RY12, Antagonist, 1 uM) was -14.8% and the activity at 1 µM ([8]; 1 uM) was -11.8%. It also gave an activity at 10 µM ([8]; 10 uM) of -4%, an activity at 10 µM ([9]; CNR2, Antagonist mode, 10 uM) of -3.2% and an activity at 1 µM ([9]; CNR2, Antagonist, 1 uM) of 3.6%. For the same compound, the activity at 10 µM ([10]; PROKR2, Antagonist mode, 10 uM) was 6.8%, the activity at 1 µM ([10]; PROKR2, Antagonist, 1 uM) was 2% and the activity at 10 µM ([11]; TACR2, Antagonist mode, 10 uM) was 9.1%. For the same compound, the activity at 1 µM ([11]; TACR2, Antagonist, 1 uM) was 10%, the activity at 10 µM ([12]; HRH1, Antagonist mode, 10 uM) was 2.2% and the activity at 1 µM ([12]; HRH1, Antagonist, 1 uM) was -18%. The activity at 10 µM ([13]; RXFP3, Antagonist mode, 10 uM) was 32.6%, the activity at 1 µM ([13]; RXFP3, Antagonist, 1 uM) was 23.1% and the activity at 1 µM ([14]; 1 uM) was 10%. It also gave an activity at 10 µM ([14]; 10 uM) of 9.5%, an activity at 10 µM ([15]; Antagonist mode, 10 uM) of -9.3% and an activity at 1 µM ([15]; Antagonist, 1 uM) of -6.7%. It also gave an activity at 10 µM ([16]; Antagonist mode, 10 uM) of 10.9%, an activity at 1 µM ([16]; Antagonist, 1 uM) of 17.5% and an activity at 10 µM ([17]; Antagonist mode, 10 uM) of -6.2%. It also gave an activity at 1 µM ([17]; Antagonist, 1 uM) of -9.5%, an activity at 10 µM ([18]; MRGPRX2, Antagonist mode, 10 uM) of 8.9% and an activity at 1 µM ([18]; MRGPRX2, Antagonist, 1 uM) of 16.2%. The activity at 1 µM ([19]; 1 uM) was 7.3%, the activity at 10 µM ([19]; 10 uM) was -2.6% and the activity at 1 µM ([20]; 1 uM) was -3.3%. It also gave an activity at 10 µM ([20]; 10 uM) of -4.1%.
